{"source": "patent US8343943B2", "about": "“Cancer sensitizer comprising glucosamine, glucosamine derivatives or salts thereof” (National Cancer Center, priority 2006, dated 2013)", "key": {"MCF 7 cells": {"system": "MCF 7 cells", "assay": "MTT cytotoxicity assay, anticancer agent-sensitive line", "type": "cell-based", "details": "MCF 7, sensitive to anticancer agent", "experimental": "(§1) An MTT assay was conducted through […] analysis on the reduction of yellow tetrazolium salt into purple formazan in the mitochondria of viable cells. Cells were seeded at a population of 1×10^5 cells/well in 24-well plates. After incubation for 24 hrs, the cells were exposed to doxorubicin. This anticancer agent was administered at a dose of 90 μM to MCF 7/DOX and 5 μM to MDA 231. A control was not treated with doxorubicin. On the very day of analysis, the culture medium in each well was substituted with a fresh medium containing MTT (3-(4,5-dimethylthiazol-2-yl)-2,5-diphenyltetrazolium) (Sigma) at a concentration of 0.5 mg per ml, followed by incubation therein for an additional 4 hrs. After the removal of the medium, 500 μl of DMSO was added to each well and the formazan crystals were dissolved using an orbital shaker. Cell viability was represented as a percentage of a test group to the control. These experiments were done in triplicate and repeated at least three times. For each experiment, the mean of three independent experiments and the standard deviations are given.\n(§2) As measured through an MTT assay, almost all MCF 7 and MDA 468, both sensitive to anticancer agent, died, whereas apoptosis took place in about 50% of the anticancer agent-resistant cell lines."}, "MDA 468 cells": {"system": "MDA 468 cells", "assay": "MTT cytotoxicity assay, anticancer agent-sensitive line", "type": "cell-based", "details": "MDA 468, sensitive to anticancer agent", "experimental": "as §1, §2"}, "[1]": {"system": "MCF 7/DOX cells (doxorubicin resistant)", "assay": "MTT cytotoxicity assay, doxorubicin with or without glucosamine", "type": "cell-based, human", "experimental": "(§3) Human breast cancer cell line MDA-231 (doxorubicin resistant) was purchased from ATCC. MCF-7/DOX (doxorubicin resistant) was obtained from Dr. Kenneth H. Cowan (University of Nebraska Medical Center, 986805 Nebraska Medical Center, Omaha, Nebr. 68198-6805, USA). These cell lines were maintained in media supplemented with 10% fetal bovine serum (Gibco BRL), 1 mM sodium pyruvate (Gibco BRL), and 100 U/ml penicillin-streptomycin (Gibco BRL) at 37° C. in a humid 5% CO2 atmosphere and subcultured every two or three days.\nas §1\n(§4) MTT assay was conducted to examine whether glucosamine increases the sensitivity of breast cancer cells to anticancer agents. MCF 7/DOX and MDA 231 cell lines, both resistant to anticancer agents, were treated with doxorubicin and glucosamine (1.0 to 10 mM) for 24 hrs. Controls were not treated with glucosamine, while doxorubicin was administered at concentrations of 5 μM to MDA-MB 231, and at a concentration of 90 μM to MCF-7/DOX."}, "[2]": {"system": "MDA 231 cells (doxorubicin resistant)", "assay": "MTT cytotoxicity assay, doxorubicin with or without glucosamine", "type": "cell-based, human", "experimental": "as §3, §1, §4"}, "[3]": {"system": "NF-κB activity in MDA231 cells", "assay": "pNF-κB-SEAP reporter assay", "type": "cell-based, human", "details": "MDA-231; glucosamine 5 mM; 24 hrs", "experimental": "(§5) MCF7/DOX and MDA231 cell lines were cultured in media supplemented with 10% fetal bovine serum (Gibco BRL), 1 mM sodium pyruvate (Gibco BRL) and 100 U/ml penicillin-streptomycin (Gibco BRL) at 37° C. in a humid 5% CO2 atmosphere. A pNF-κB-SEAP vector was transfected into the cells. 24 hrs after transfection, the cells were cultured in the presence of or absence of glucosamine (represented by GM, 5 mM) for 24 hrs. The cell culture was subjected to an SEAP assay, and the cells, after being harvested, were subjected to a β-galactosidase assay. The values obtained for the SEAP assay were corrected for transfection efficiency with a pGAL plasmid (1 μg). β-Galactosidase activity was measured to correct the SEAP activity. The SEAP assay was conducted according to the procedure set forth by the manufacturer (BD Biosciences Clontech, Co.). […] These experiments were done in triplicate and repeated at least three times. The values of each experiment are the mean of three independent experiments and the standard deviations."}, "[4]": {"system": "NF-κB activity in MCF7/DOX cells", "assay": "pNF-κB-SEAP reporter assay", "type": "cell-based, human", "details": "MCF-7/DOX; glucosamine 5 mM; 24 hrs", "experimental": "as §5"}, "I-κBα in MCF7/DOX cells": {"system": "I-κBα in MCF7/DOX cells", "assay": "Western blotting against I-κBα, cytoplasm fractions", "type": "cell-based, human", "details": "MCF-7/DOX; cultured 1 hr; cytoplasm fraction", "experimental": "(§6) Glucosamine was analyzed for its effect on I-κBα degradation. For this, MCF7/DOX and MDA231 cells were cultured for 1 hr and cytoplasm fractions thereof were harvested for Western blotting against I-κBα. Western blotting results are shown in the upper panel of FIG. 3B. Western blotting was quantified using a densitometer, and the results are depicted in the lower panel of FIG. 3B. For each value, the mean of three independent experiments and standard deviations are given."}, "I-κBα in MDA231 cells": {"system": "I-κBα in MDA231 cells", "assay": "Western blotting against I-κBα, cytoplasm fractions", "type": "cell-based, human", "details": "MDA-231; cultured 1 hr; cytoplasm fraction", "experimental": "as §6"}}}
{"smiles": "COc1cccc2c1C(=O)c1c(O)c3c(c(O)c1C2=O)C[C@@](O)(C(=O)CO)C[C@@H]3O[C@H]1C[C@H](N)[C@H](O)[C@H](C)O1", "note": "[doxorubicin, reference compound]", "values": [{"measurement": "cell death", "setting": "MCF 7 cells", "result": "almost all"}, {"measurement": "cell death", "setting": "MDA 468 cells", "result": "almost all"}, {"measurement": "apoptosis of cells", "setting": "[1]; MCF 7/DOX, doxorubicin 90 μM alone", "result": "about 50%"}, {"measurement": "apoptosis of cells", "setting": "[2]; MDA 231, doxorubicin 5 μM alone", "result": "about 50%"}]}
{"smiles": "N[C@H]1C(O)O[C@H](CO)[C@@H](O)[C@@H]1O", "note": "(stereo partly drawn) [glucosamine]", "values": [{"measurement": "NF-κB activity", "setting": "[3]", "result": "decrease"}, {"measurement": "NF-κB activity", "setting": "[4]", "result": "decrease"}, {"measurement": "sensitivity to doxorubicin when treated with glucosamine vs not treated", "setting": "[1]; MCF 7/DOX, doxorubicin 90 μM, glucosamine 1.0 to 10 mM, 24 hrs", "result": "twice as (two times more=three times as) sensitive"}, {"measurement": "apoptosis frequency, anticancer agent in combination with glucosamine vs alone", "setting": "[1]; chemoresistant cells, FIG. 1 (MCF/DOX)", "result": "twice as frequently"}, {"measurement": "sensitivity to doxorubicin when treated with glucosamine vs not treated", "setting": "[2]; MDA 231, doxorubicin 5 μM, glucosamine 1.0 to 10 mM, 24 hrs", "result": "twice as (two times more=three times as) sensitive"}, {"measurement": "apoptosis frequency, anticancer agent in combination with glucosamine vs alone", "setting": "[2]; chemoresistant cells, FIG. 2 (MDA231)", "result": "twice as frequently"}, {"measurement": "I-κBα level", "setting": "I-κBα in MCF7/DOX cells", "result": "increase"}, {"measurement": "I-κBα level", "setting": "I-κBα in MDA231 cells", "result": "increase"}]}
